We go through twelve compounds from patent US20260297085A1, “1 H-PYRROLO[2,3-B]PYRIDIN-4-YL]-2-OXOPYRROLIDINE-3-CARBONITRILE DERIVATIVES AS TYROSINE KINASE 2 (TYK2) INHIBITORS FOR THE TREATMENT OF INFLAMMATORY DISEASES” (BIOGEN MA INC., priority 2023, published 2026).

Structures can show the parent of a compound that is named as a salt.

The target in test [1] is Tyk2 kinase activity on STAT4 in NK92 cells (Homo sapiens, UniProt P29597). Description: pSTAT4 cell assay (MSD; NK92 cells, 30 ng/mL IL2 stimulation). It is filed as cell-based. The conditions noted are these: 30 ng/mL IL2, 15 minutes. In outline: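 IC50 values come from 4-parameter logistic fits of normalized percent activity. Phospho-STAT was read by MSD (anti-STAT4 antibodies) in NK92 lysates after a 15 min stimulation with 30 ng/mL IL2. The serum-starved cells had been given compound for 1 h (10 points, four-fold, top 10 μM).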

The target of test [2] is T1, human JAK2 kinase domain (JH1) (Homo sapiens, UniProt O60674).
T1 construct: recombinantly generated catalytic kinase (also known as JH1) domain of human JAK1, JAK2, JAK3 and TYK2
Description: JH1 biochemical assay for JAK2 (ADP-Glo kinase assay, recombinant JH1 catalytic domain, JAK3-974 peptide, 15 μM ATP). The method in brief: (§1)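 Luminescent ADP read-out after residual ATP depletion, 100 min reaction. Kinase domain concentrations were 4 nM (JAK1), 0.2 nM (JAK2), 0.3 nM (JAK3) and 2 nM (TYK2), each with 50 μM peptide. IC50 values came from 4-parameter logistic fits over 11 points, 3-fold steps, top 10 μM or 1 μM.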
(In ADP-Glo the light output rises with the ADP produced.)

Test [3] addresses JAK1 kinase activity on STAT3 in TF1 cells (Homo sapiens, UniProt P23458). In words: pSTAT3 cell assay (MSD; TF1 cells, 30 ng/mL IL-6 stimulation). The conditions noted are these: 30 ng/mL IL-6, 15 minutes. It is filed as cell-based. In outline:
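Serum starvation, 1 h compound (10 pt, 4-fold from 10 μM), IL-6 15 min, lysis. pSTAT3 read by MSD immunoassay, anti-STAT3 Abs. Normalized % activity vs log[cpd], 4-PL fit → IC50.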

The target of test [4] is T2, human JAK3 kinase domain (JH1) (Homo sapiens, UniProt P52333).
T2 construct: recombinantly generated catalytic kinase (also known as JH1) domain of human JAK1, JAK2, JAK3 and TYK2
In words: JH1 biochemical assay for JAK3 (ADP-Glo kinase assay, recombinant JH1 catalytic domain, JAK3-974 peptide, 4 μM ATP). The method in brief:
as §1

In test [5] the target is T3, human JAK1 kinase domain (JH1) (Homo sapiens, UniProt P23458).
T3 construct: recombinantly generated catalytic kinase (also known as JH1) domain of human JAK1, JAK2, JAK3 and TYK2
Description: JH1 biochemical assay for JAK1 (ADP-Glo kinase assay, recombinant JH1 catalytic domain, JAK3-342 peptide, 35 μM ATP). The method in brief: as §1

The target in test [6] is JAK2 kinase activity on STAT5 in TF1 cells (Homo sapiens, UniProt O60674). Description: pSTAT5 cell assay (MSD; TF1 cells, 30 ng/mL IL-3 stimulation). It is filed as cell-based. The conditions noted are these: 30 ng/mL IL-3, 15 minutes. The method in brief:
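IC50 from a 4-parameter logistic fit of normalized pSTAT5 signal, measured by MSD in lysates of TF1 cells. Cells were serum-starved, exposed to compound for 1 h (top concentration 10 μM, four-fold, 10 points), then given IL-3 at 30 ng/mL for 15 min.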

In test [7] the target is T4, human TYK2 kinase domain (JH1) (Homo sapiens, UniProt P29597).
T4 construct: recombinantly generated catalytic kinase (also known as JH1) domain of human JAK1, JAK2, JAK3 and TYK2
T4 sequence (P29597 897-1176 limits assumed): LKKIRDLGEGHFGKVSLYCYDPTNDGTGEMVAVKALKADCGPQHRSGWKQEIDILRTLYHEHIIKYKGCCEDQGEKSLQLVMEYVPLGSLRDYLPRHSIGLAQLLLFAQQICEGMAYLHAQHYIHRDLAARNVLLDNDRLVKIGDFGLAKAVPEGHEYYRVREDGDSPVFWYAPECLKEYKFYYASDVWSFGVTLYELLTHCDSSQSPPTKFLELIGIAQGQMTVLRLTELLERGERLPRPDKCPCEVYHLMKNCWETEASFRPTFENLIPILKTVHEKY
Description: JH1 biochemical assay for TYK2 (ADP-Glo kinase assay, recombinant JH1 catalytic domain, JAK3-974 peptide, 10 μM ATP). The method in brief: as §1

Broadly, the IC50 is the point on the concentration scale where inhibition reaches its midpoint.

T2 sequence (P52333 822-1111 limits assumed): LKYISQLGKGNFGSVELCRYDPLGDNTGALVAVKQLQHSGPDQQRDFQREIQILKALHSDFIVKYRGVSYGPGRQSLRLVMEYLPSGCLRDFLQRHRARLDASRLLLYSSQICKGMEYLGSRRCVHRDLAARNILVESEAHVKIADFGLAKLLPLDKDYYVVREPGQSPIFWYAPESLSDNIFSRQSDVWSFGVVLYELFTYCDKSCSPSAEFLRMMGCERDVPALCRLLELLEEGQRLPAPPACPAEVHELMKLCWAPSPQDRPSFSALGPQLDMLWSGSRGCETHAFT
T1 sequence (O60674 849-1124 limits assumed): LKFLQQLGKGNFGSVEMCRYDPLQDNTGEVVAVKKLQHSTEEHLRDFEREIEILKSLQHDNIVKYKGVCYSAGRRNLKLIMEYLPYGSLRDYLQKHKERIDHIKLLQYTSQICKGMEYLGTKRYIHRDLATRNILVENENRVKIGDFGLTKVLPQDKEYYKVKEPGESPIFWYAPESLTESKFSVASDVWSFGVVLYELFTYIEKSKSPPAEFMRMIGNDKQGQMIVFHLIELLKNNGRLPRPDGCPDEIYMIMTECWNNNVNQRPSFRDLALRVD
T3 sequence (P23458 875-1153 limits assumed): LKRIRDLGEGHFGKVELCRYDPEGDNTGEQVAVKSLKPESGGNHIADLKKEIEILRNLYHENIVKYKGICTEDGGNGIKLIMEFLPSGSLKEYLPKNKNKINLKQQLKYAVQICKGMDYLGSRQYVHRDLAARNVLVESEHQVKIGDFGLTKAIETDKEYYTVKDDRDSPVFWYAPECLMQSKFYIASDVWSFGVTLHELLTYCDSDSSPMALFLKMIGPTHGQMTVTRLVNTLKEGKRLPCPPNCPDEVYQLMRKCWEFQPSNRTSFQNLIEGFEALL
JAK2 kinase activity on STAT5 in TF1 cells, sequence (O60674 whole entry): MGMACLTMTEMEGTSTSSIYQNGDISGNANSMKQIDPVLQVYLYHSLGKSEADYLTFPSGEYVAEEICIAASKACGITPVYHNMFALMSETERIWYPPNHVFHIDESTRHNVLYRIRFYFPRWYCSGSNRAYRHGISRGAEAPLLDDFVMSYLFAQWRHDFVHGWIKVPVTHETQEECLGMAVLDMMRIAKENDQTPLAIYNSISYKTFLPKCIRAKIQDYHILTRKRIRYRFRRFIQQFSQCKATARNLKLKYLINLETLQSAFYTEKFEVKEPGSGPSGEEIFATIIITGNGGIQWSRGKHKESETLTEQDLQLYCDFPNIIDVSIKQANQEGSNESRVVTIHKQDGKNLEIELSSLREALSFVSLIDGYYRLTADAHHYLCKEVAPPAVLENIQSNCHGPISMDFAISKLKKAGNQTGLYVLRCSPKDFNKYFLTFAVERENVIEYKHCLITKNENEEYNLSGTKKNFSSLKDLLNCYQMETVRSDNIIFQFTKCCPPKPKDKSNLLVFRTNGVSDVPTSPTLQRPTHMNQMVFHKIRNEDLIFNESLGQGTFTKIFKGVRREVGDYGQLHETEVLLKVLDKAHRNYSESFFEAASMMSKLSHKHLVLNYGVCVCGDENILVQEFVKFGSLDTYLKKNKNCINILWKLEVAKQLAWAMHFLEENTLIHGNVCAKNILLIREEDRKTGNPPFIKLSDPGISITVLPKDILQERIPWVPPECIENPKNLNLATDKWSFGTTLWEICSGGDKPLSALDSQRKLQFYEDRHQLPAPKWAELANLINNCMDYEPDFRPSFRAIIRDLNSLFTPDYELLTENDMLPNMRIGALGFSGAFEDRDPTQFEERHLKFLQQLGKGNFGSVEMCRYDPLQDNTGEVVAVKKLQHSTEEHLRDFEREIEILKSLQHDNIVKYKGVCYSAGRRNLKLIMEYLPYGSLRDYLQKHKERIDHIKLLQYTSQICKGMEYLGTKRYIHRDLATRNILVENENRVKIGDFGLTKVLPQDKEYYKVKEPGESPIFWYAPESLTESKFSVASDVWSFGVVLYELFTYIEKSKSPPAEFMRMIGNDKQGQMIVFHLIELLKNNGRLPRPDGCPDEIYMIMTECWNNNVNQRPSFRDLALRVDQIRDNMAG
JAK1 kinase activity on STAT3 in TF1 cells, sequence (P23458 whole entry): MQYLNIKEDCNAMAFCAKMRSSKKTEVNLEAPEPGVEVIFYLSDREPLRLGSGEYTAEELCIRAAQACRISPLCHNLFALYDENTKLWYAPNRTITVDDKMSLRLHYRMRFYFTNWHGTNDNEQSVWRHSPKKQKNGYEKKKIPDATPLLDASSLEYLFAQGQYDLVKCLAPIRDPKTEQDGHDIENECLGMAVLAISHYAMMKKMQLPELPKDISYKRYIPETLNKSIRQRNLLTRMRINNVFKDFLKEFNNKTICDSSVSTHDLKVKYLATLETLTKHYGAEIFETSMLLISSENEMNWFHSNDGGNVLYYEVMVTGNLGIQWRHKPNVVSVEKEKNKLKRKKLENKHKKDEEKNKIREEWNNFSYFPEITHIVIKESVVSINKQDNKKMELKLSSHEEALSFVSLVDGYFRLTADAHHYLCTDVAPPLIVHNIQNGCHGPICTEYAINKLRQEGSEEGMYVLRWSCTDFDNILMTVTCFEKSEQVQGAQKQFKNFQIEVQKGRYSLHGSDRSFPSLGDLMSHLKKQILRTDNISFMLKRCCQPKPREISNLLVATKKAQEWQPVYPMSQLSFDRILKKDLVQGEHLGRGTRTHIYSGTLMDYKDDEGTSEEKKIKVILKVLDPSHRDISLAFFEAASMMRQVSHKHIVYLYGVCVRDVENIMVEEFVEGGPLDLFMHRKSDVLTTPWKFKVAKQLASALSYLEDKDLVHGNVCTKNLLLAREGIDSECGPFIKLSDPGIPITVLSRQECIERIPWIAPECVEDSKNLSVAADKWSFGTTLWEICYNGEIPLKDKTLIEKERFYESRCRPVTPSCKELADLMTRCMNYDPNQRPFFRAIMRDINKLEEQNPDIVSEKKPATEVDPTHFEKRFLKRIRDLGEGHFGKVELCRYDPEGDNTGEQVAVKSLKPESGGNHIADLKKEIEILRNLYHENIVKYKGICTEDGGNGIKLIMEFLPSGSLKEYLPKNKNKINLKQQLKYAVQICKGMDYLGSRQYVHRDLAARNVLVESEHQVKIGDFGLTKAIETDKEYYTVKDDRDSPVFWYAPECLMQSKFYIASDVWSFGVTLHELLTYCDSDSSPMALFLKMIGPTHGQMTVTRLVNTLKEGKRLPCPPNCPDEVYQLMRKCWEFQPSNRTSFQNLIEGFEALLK
Tyk2 kinase activity on STAT4 in NK92 cells, sequence (P29597 whole entry): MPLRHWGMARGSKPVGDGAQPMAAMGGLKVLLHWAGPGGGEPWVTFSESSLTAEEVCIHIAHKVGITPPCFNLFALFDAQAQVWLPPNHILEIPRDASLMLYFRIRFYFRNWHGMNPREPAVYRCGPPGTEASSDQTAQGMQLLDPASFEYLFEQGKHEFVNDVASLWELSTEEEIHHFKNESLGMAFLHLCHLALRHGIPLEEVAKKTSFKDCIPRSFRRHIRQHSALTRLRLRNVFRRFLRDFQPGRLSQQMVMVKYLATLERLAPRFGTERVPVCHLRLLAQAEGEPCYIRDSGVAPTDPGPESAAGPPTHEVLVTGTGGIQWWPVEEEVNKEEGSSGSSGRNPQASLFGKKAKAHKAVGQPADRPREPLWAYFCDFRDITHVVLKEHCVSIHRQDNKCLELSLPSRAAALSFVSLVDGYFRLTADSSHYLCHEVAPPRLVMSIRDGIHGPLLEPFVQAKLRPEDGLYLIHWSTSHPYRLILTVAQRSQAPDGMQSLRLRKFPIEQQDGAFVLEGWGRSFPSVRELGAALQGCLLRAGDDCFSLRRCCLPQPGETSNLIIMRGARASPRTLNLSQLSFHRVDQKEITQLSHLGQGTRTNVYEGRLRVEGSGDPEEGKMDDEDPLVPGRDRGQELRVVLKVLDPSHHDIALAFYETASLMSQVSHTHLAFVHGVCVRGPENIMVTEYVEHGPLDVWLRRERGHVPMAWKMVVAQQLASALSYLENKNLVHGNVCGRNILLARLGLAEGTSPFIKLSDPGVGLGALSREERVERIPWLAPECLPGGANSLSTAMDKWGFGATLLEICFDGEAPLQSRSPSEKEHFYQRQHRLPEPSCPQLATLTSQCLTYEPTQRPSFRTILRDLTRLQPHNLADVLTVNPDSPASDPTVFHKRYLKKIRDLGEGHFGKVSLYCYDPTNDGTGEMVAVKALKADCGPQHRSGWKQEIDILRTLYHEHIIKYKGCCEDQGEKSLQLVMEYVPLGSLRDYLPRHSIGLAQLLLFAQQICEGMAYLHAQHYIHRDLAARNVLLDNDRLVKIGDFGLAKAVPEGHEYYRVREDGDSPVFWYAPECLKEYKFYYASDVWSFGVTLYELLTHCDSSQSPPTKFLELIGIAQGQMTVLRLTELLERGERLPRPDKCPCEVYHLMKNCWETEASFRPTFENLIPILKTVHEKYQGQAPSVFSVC

As for `C[C@@H]1CN(c2nc(-c3cnn(C4CC4(F)F)c3)cn3nccc23)C(=O)[C@]1(C#N)C1CC1` (stereo partly drawn) [Example 198, (3R,4S)-3-cyclopropyl-1-(6-(1-(2,2-difluorocyclopropyl)-1H-pyrazol-4-yl)pyrazolo[1,5-a]pyrazin-4-yl)-4-methyl-2-oxopyrrolidine-3-carbonitrile], the IC50 in test [1] is 50 to 100 nM; in test [2] (JH1 kinase domain, ADP-Glo), less than 100 nM; in test [3] it was 100 to 1000 nM; in test [4] (JH1 kinase domain, ADP-Glo), less than 100 nM; in test [5] (JH1 kinase domain, ADP-Glo) it was less than 100 nM; in test [6], 100 to 1000 nM. Moreover, in test [7] (JH1 kinase domain, ADP-Glo), the IC50 was less than 5 nM.
For `C[C@@H]1CN(c2ccnn3cc(-c4cnn(C5COC5)c4)cc23)C(=O)[C@]1(C#N)C1CC1` [Example 97, (3R,4S)-3-cyclopropyl-4-methyl-1-(6-(1-(oxetan-3-yl)-1H-pyrazol-4-yl)pyrrolo[1,2-b]pyridazin-4-yl)-2-oxopyrrolidine-3-carbonitrile], the IC50 in test [1] is 20 to 50 nM; in test [2] (JH1 kinase domain, ADP-Glo), less than 100 nM; in test [3] it was 1000 to 5000 nM; in test [4] (JH1 kinase domain, ADP-Glo) it was less than 100 nM; in test [5] (JH1 kinase domain, ADP-Glo), less than 100 nM; in test [6], 1000 to 5000 nM. Moreover, the IC50 in test [7] (JH1 kinase domain, ADP-Glo) was less than 5 nM.
Regarding `CNC(=O)c1ccc(-c2cn3nccc3c(N3C[C@@H](C)[C@@](C#N)(C4CC4)C3=O)n2)cn1` [Example 227, 5-(4-((3R,4S)-3-cyano-3-cyclopropyl-4-methyl-2-oxopyrrolidin-1-yl)pyrazolo[1,5-a]pyrazin-6-yl)-N-methylpicolinamide trifluoroacetate], the half-maximal inhibitory concentration (IC50) in test [1] is greater than 100 nM; in test [2] (JAK2 JH1, ADP-Glo), 100 to 1000 nM; in test [3], 100 to 1000 nM; in test [4] (JAK3 JH1, ADP-Glo), less than 100 nM; in test [5] (JAK1 JH1, ADP-Glo), less than 100 nM; in test [6], 1000 to 5000 nM. The IC50 in test [7] (TYK2 JH1, ADP-Glo) was less than 5 nM.
Consider `C[C@@H]1CN(c2ccnn3cc(-c4cnn(CC#N)c4)cc23)C(=O)[C@]1(C#N)C1CC1` [Example 168, (3R,4S)-1-(6-(1-(cyanomethyl)-1H-pyrazol-4-yl)pyrrolo[1,2-b]pyridazin-4-yl)-3-cyclopropyl-4-methyl-2-oxopyrrolidine-3-carbonitrile], for which the IC50 in test [1] was 50 to 100 nM; in test [2] (JH1 kinase domain, ADP-Glo) it was less than 100 nM; in test [3], 1000 to 5000 nM; in test [4] (JH1 kinase domain, ADP-Glo) it was less than 100 nM; in test [5] (JH1 kinase domain, ADP-Glo), less than 100 nM; in test [6], 1000 to 5000 nM. Also, the IC50 in test [7] (JH1 kinase domain, ADP-Glo) is less than 5 nM.
For the compound `C[C@@H]1CN(c2ccnn3cc(-c4cccnc4F)cc23)C(=O)[C@]1(C#N)C1CC1` [Example 56, (3R,4S)-3-cyclopropyl-1-(6-(2-fluoropyridin-3-yl)pyrrolo[1,2-b]pyridazin-4-yl)-4-methyl-2-oxopyrrolidine-3-carbonitrile], the half-maximal inhibitory concentration (IC50) in test [1] was greater than 100 nM; in test [2] (JH1 kinase domain, ADP-Glo), 100 to 1000 nM; in test [3] it was 5000 to 10000 nM; in test [4] (JH1 kinase domain, ADP-Glo), 100 to 1000 nM; in test [5] (JH1 kinase domain, ADP-Glo) it was 100 to 1000 nM; in test [6] it was greater than 10000 nM. Moreover, the IC50 in test [7] (JH1 kinase domain, ADP-Glo) was 5 to 20 nM.
In the case of `C[C@@H]1CN(c2ccnn3cc(-c4ccn(C)c(=O)c4)cc23)C(=O)[C@]1(C#N)C1CC1` [Example 79, (3R,4S)-3-cyclopropyl-4-methyl-1-(6-(1-methyl-2-oxo-1,2-dihydropyridin-4-yl)pyrrolo[1,2-b]pyridazin-4-yl)-2-oxopyrrolidine-3-carbonitrile], the IC50 is greater than 100 nM in test [1]; 100 to 1000 nM in test [2] (JH1 kinase domain, ADP-Glo); greater than 10000 nM in test [3]; 100 to 1000 nM in test [4] (JH1 kinase domain, ADP-Glo); 100 to 1000 nM in test [5] (JH1 kinase domain, ADP-Glo); greater than 10000 nM in test [6]. Moreover, in test [7] (JH1 kinase domain, ADP-Glo), the IC50 was in the range of 5 to 20 nM.
Take `C[C@@H]1CN(c2ccnn3cc(-c4cc5n(n4)CCO5)cc23)C(=O)[C@]1(C#N)C1CC1` [Example 110, (3R,4S)-3-cyclopropyl-1-(6-(2,3-dihydropyrazolo[5,1-b]oxazol-6-yl)pyrrolo[1,2-b]pyridazin-4-yl)-4-methyl-2-oxopyrrolidine-3-carbonitrile trifluoroacetate]: the IC50 in test [1] is greater than 100 nM; in test [2] (JH1 kinase domain, ADP-Glo) it was 100 to 1000 nM; in test [3] it was greater than 10000 nM; in test [4] (JH1 kinase domain, ADP-Glo), 100 to 1000 nM; in test [5] (JH1 kinase domain, ADP-Glo) it was 100 to 1000 nM; in test [6], greater than 10000 nM. Further, the IC50 in test [7] (JH1 kinase domain, ADP-Glo) fell in the range of 5 to 20 nM.
Turning to `Cc1cncc(-c2cn3nccc3c(N3C[C@@H](C)[C@@](C#N)(C4CC4)C3=O)n2)c1` [Example 236, (3R,4S)-3-cyclopropyl-4-methyl-1-(6-(5-methylpyridin-3-yl)pyrazolo[1,5-a]pyrazin-4-yl)-2-oxopyrrolidine-3-carbonitrile], the concentration for half-maximal inhibition (IC50) in test [1] was greater than 100 nM; in test [2] (JAK2 JH1, ADP-Glo), 100 to 1000 nM; in test [3], 1000 to 5000 nM; in test [4] (JAK3 JH1, ADP-Glo), 100 to 1000 nM; in test [5] (JAK1 JH1, ADP-Glo), 100 to 1000 nM; in test [6], 5000 to 10000 nM. For the same compound, the IC50 in test [7] (TYK2 JH1, ADP-Glo) is 5 to 20 nM.
Take `C[C@@H]1CN(c2nc(-c3cnc4c(c3)CC(=O)N4)cn3nccc23)C(=O)[C@]1(C#N)C1CC1` [Example 205, (3R,4S)-3-cyclopropyl-4-methyl-2-oxo-1-(6-(2-oxo-2,3-dihydro-1H-pyrrolo[2,3-b]pyridin-5-yl)pyrazolo[1,5-a]pyrazin-4-yl)pyrrolidine-3-carbonitrile]: the concentration for half-maximal inhibition (IC50) is greater than 100 nM in test [1]; less than 100 nM in test [2] (JH1 kinase domain, ADP-Glo); 1000 to 5000 nM in test [3]; less than 100 nM in test [4] (JH1 kinase domain, ADP-Glo); less than 100 nM in test [5] (JH1 kinase domain, ADP-Glo); 5000 to 10000 nM in test [6]. Further, the IC50 in test [7] (JH1 kinase domain, ADP-Glo) was less than 5 nM.
Regarding `Cc1c(-c2cn3nccc3c(N3C[C@@H](C)[C@@](C#N)(C4CC4)C3=O)n2)cnn1C` [Example 199, (3R,4S)-3-cyclopropyl-1-(6-(1,5-dimethyl-1H-pyrazol-4-yl)pyrazolo[1,5-a]pyrazin-4-yl)-4-methyl-2-oxopyrrolidine-3-carbonitrile], the IC50 in test [1] is greater than 100 nM; in test [2] (JH1 kinase domain, ADP-Glo) it was 100 to 1000 nM; in test [3], 1000 to 5000 nM; in test [4] (JH1 kinase domain, ADP-Glo) it was 100 to 1000 nM; in test [5] (JH1 kinase domain, ADP-Glo) it was less than 100 nM; in test [6], 5000 to 10000 nM. In addition, the IC50 in test [7] (JH1 kinase domain, ADP-Glo) was in the range of 5 to 20 nM.
For the compound `C[C@@H]1CN(c2ccnn3cc(-c4cncc(O)c4)cc23)C(=O)[C@]1(C#N)C1CC1` [Example 53, (3R,4S)-3-cyclopropyl-1-(6-(5-hydroxypyridin-3-yl)pyrrolo[1,2-b]pyridazin-4-yl)-4-methyl-2-oxopyrrolidine-3-carbonitrile], the concentration for half-maximal inhibition (IC50) in test [1] is greater than 100 nM; in test [2] (JH1 kinase domain, ADP-Glo), 100 to 1000 nM; in test [3], 5000 to 10000 nM; in test [4] (JH1 kinase domain, ADP-Glo), 100 to 1000 nM; in test [5] (JH1 kinase domain, ADP-Glo), 100 to 1000 nM; in test [6], greater than 10000 nM. The IC50 in test [7] (JH1 kinase domain, ADP-Glo) lay within 5 to 20 nM.
In the case of `C[C@@H]1CN(c2nc(-c3cc[nH]n3)cn3nccc23)C(=O)[C@]1(C#N)C1CC1` [Example 232, (3R,4S)-1-(6-(1H-pyrazol-3-yl)pyrazolo[1,5-a]pyrazin-4-yl)-3-cyclopropyl-4-methyl-2-oxopyrrolidine-3-carbonitrile trifluoroacetate], the 50% inhibitory concentration (IC50) in test [1] is greater than 100 nM; in test [2] (JAK2 JH1, ADP-Glo) it was 100 to 1000 nM; in test [3] it was 1000 to 5000 nM; in test [4] (JAK3 JH1, ADP-Glo) it was 100 to 1000 nM; in test [5] (JAK1 JH1, ADP-Glo), less than 100 nM; in test [6] it was greater than 10000 nM. For the same compound, the IC50 in test [7] (TYK2 JH1, ADP-Glo) was in the range of 5 to 20 nM.
